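The compound was tested at five concentrations on cells cultured in 96-well plates, with a 48-hour exposure period. Here, GI50 denotes the concentration required for 50% inhibition of growth. TGI is the concentration that stops growth completely.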
Legend:
Test in all cases: NCI tumour cell line growth inhibition, 48 h
[1] = test system: 786-0 renal
[2] = test system: A498 renal
[3] = test system: A549 NSCLC
[4] = test system: ACHN renal
[5] = test system: CAKI-1 renal
[6] = test system: CCRF-CEM leukemia
[7] = test system: COLO 205 colon
[8] = test system: DLD-1 colon
[9] = test system: DMS 273 small cell lung
[10] = test system: HCT-116 colon
[11] = test system: HL-60(TB) leukemia
[12] = test system: HOP-18 NSCLC
[13] = test system: HOP-62 NSCLC
[14] = test system: HOP-92 NSCLC
[15] = test system: HT29 colon
[16] = test system: IGROV1 ovarian
[17] = test system: K-562 leukemia
[18] = test system: KM12 colon
[19] = test system: KM20L2 colon
[20] = test system: LOX IMVI melanoma
[21] = test system: M14 melanoma
[22] = test system: MALME-3M melanoma
[23] = test system: MOLT-4 leukemia
[24] = test system: NCI-H23 lung
[25] = test system: NCI-H460 lung
[26] = test system: NCI-H522 lung
[27] = test system: OVCAR-3 ovarian
[28] = test system: OVCAR-4 ovarian
[29] = test system: OVCAR-8 ovarian
[30] = test system: RPMI-8226 leukemia
[31] = test system: SF-268 CNS
[32] = test system: SF-295 CNS
[33] = test system: SF-539 CNS
[34] = test system: SK-MEL-28 melanoma
[35] = test system: SK-MEL-5 melanoma
[36] = test system: SK-OV-3 ovarian
[37] = test system: SN12C renal
[38] = test system: SNB-19 CNS
[39] = test system: SNB-75 CNS
[40] = test system: SW-620 colon
[41] = test system: TK-10 renal
[42] = test system: U251 CNS
[43] = test system: UACC-257 melanoma
[44] = test system: UACC-62 melanoma
[45] = test system: UO-31 renal
[46] = test system: EKVX NSCLC
[47] = test system: HCC-2998 colon
[48] = test system: HCT-15 colon
[49] = test system: LXFL 529 NSCLC
[50] = test system: NCI-H226 lung
[51] = test system: OVCAR-5 ovarian
[52] = test system: RXF 393 renal
[53] = test system: SK-MEL-2 melanoma

## CC(=O)[CH-]C(=O)c1ccccc1.CC(=O)[CH-]C(=O)c1ccccc1.CC12CC3(C)CC(C)(C1)CC([O-])(C2)C3.CC[O-].[Ti+4]
[1]
  GI50: 29.3 µM
  TGI: > 100 µM
[2]
  GI50: 21.3 µM
  TGI: 44.5 µM
[3]
  GI50: 29.5 µM
  TGI: > 100 µM
[4]
  GI50: 38.7 µM
  TGI: > 100 µM
[5]
  GI50: 42.9 µM
  TGI: > 100 µM
[6]
  GI50: 28.7 µM
  TGI: > 100 µM
[7]
  GI50: 19.4 µM
  TGI: 40.2 µM
[8]
  GI50: 17 µM
  TGI: 78.6 µM
[9]
  GI50: 33.4 µM
  TGI: > 100 µM
[10]
  GI50: 18.8 µM
  TGI: 50.6 µM
[11]
  GI50: 27.8 µM
  TGI: > 100 µM
[12]
  GI50: 37.4 µM
  TGI: > 100 µM
[13]
  GI50: 22.3 µM
  TGI: 53.3 µM
[14]
  GI50: 19.1 µM
  TGI: 55.3 µM
[15]
  GI50: 27 µM
  TGI: > 100 µM
[16]
  GI50: 40.9 µM
  TGI: > 100 µM
[17]
  GI50: 34.4 µM
  TGI: > 100 µM
[18]
  GI50: 18.3 µM
  TGI: 35.2 µM
[19]
  GI50: 35.2 µM
  TGI: > 100 µM
[20]
  GI50: 13.2 µM
  TGI: 31.1 µM
[21]
  GI50: 16.9 µM
  TGI: 32.8 µM
[22]
  GI50: 17.5 µM
  TGI: 47 µM
[23]
  GI50: 28.9 µM
  TGI: > 100 µM
[24]
  GI50: 18.1 µM
  TGI: 34.4 µM
[25]
  GI50: 16.8 µM
  TGI: 46 µM
[26]
  GI50: 21.2 µM
  TGI: 44.6 µM
[27]
  GI50: 25.6 µM
  TGI: > 100 µM
[28]
  GI50: 17.9 µM
  TGI: 53.3 µM
[29]
  GI50: 27.7 µM
  TGI: > 100 µM
[30]
  GI50: 8.54 µM
  TGI: 95.5 µM
[31]
  GI50: 18.6 µM
  TGI: 45.4 µM
[32]
  GI50: 33.4 µM
  TGI: > 100 µM
[33]
  GI50: 17.5 µM
  TGI: 38.5 µM
[34]
  GI50: 17 µM
  TGI: 38.2 µM
[35]
  GI50: 30.8 µM
  TGI: 64.4 µM
[36]
  GI50: 23.1 µM
  TGI: > 100 µM
[37]
  GI50: 43.5 µM
  TGI: > 100 µM
[38]
  GI50: 20.9 µM
  TGI: 45.2 µM
[39]
  GI50: 14.3 µM
  TGI: 29.4 µM
[40]
  GI50: 32.4 µM
  TGI: > 100 µM
[41]
  GI50: 26.7 µM
  TGI: 62.1 µM
[42]
  GI50: 13.5 µM
  TGI: 27.9 µM
[43]
  GI50: 27.9 µM
  TGI: 76.1 µM
[44]
  GI50: 18.5 µM
  TGI: 45.2 µM
[45]
  GI50: 16 µM
  TGI: 57.5 µM

## CC(=O)[CH-]C(=O)c1ccccc1.CC(=O)[CH-]C(=O)c1ccccc1.CC[O-].O=C1C=C([O-])C(=O)c2ccccc21.[Ti+4]
[1]
  GI50: > 100 µM
  TGI: > 100 µM
[2]
  GI50: 81.1 µM
  TGI: > 100 µM
[3]
  GI50: 46.3 µM
  TGI: > 100 µM
[4]
  GI50: 66.5 µM
  TGI: > 100 µM
[5]
  GI50: > 100 µM
  TGI: > 100 µM
[6]
  GI50: 21 µM
  TGI: > 100 µM
[7]
  GI50: 26.9 µM
  TGI: > 100 µM
[8]
  GI50: > 100 µM
  TGI: > 100 µM
[9]
  GI50: 96.4 µM
  TGI: > 100 µM
[46]
  GI50: 25.9 µM
  TGI: > 100 µM
[47]
  GI50: 23.1 µM
  TGI: > 100 µM
[10]
  GI50: 62.5 µM
  TGI: > 100 µM
[48]
  GI50: 56.2 µM
  TGI: > 100 µM
[11]
  GI50: 16.1 µM
  TGI: 80 µM
[12]
  GI50: 95.4 µM
  TGI: > 100 µM
[13]
  GI50: 58.2 µM
  TGI: > 100 µM
[14]
  GI50: 26.2 µM
  TGI: 82.8 µM
[15]
  GI50: 41 µM
  TGI: > 100 µM
[16]
  GI50: > 100 µM
  TGI: > 100 µM
[17]
  GI50: > 100 µM
  TGI: > 100 µM
[18]
  GI50: 32.2 µM
  TGI: > 100 µM
[19]
  GI50: 42.4 µM
  TGI: > 100 µM
[20]
  GI50: 20 µM
  TGI: > 100 µM
[49]
  GI50: 48.8 µM
  TGI: > 100 µM
[21]
  GI50: 18 µM
  TGI: > 100 µM
[22]
  GI50: 34.8 µM
  TGI: > 100 µM
[23]
  GI50: 58.3 µM
  TGI: > 100 µM
[50]
  GI50: 76 µM
  TGI: > 100 µM
[24]
  GI50: 10.8 µM
  TGI: > 100 µM
[25]
  GI50: 71.9 µM
  TGI: > 100 µM
[26]
  GI50: 10.6 µM
  TGI: 69.3 µM
[27]
  GI50: 42.6 µM
  TGI: > 100 µM
[28]
  GI50: > 100 µM
  TGI: > 100 µM
[51]
  GI50: 95.3 µM
  TGI: > 100 µM
[29]
  GI50: > 100 µM
  TGI: > 100 µM
[30]
  GI50: 16.9 µM
  TGI: 85.8 µM
[52]
  GI50: > 100 µM
  TGI: > 100 µM
[31]
  GI50: > 100 µM
  TGI: > 100 µM
[32]
  GI50: 37.9 µM
  TGI: > 100 µM
[33]
  GI50: > 100 µM
  TGI: > 100 µM
[53]
  GI50: 9.07 µM
  TGI: 86.3 µM
[34]
  GI50: > 100 µM
  TGI: > 100 µM
[35]
  GI50: 14 µM
  TGI: > 100 µM
[36]
  GI50: 70.8 µM
  TGI: > 100 µM
[37]
  GI50: 97.9 µM
  TGI: > 100 µM
[38]
  GI50: > 100 µM
  TGI: > 100 µM
[39]
  GI50: > 100 µM
  TGI: > 100 µM
[40]
  GI50: 33 µM
  TGI: > 100 µM
[42]
  GI50: 32.4 µM
  TGI: > 100 µM
[43]
  GI50: 8.49 µM
  TGI: 86 µM
[44]
  GI50: 38.8 µM
  TGI: > 100 µM
[45]
  GI50: > 100 µM
  TGI: > 100 µM

Reference: PubChem BioAssay (NCI)
